In patent US11058680B2, “Combinations of opioid/TLR4 antagonists and acetaminophen for use in the treatment of emotional pain and insomnia” (Allodynic Threapeutics, LLC, priority 2016, dated 2021):
“And” between values parts separate entries of the source, which are not always exact repeats. Identical values can stand only once.

Test system: migraine attacks
Test: Naltrexone/acetaminophen open-label pilot study, acute treatment of migraine: headache pain (4-point scale; relief score ≤1, pain-free score = 0), associated symptoms, additional meds
Format: in vivo, human
Experimental: Sixteen unique patients were enrolled in an open phase pilot study for the acute treatment of migraine attacks, insomnia, and emotional pain. Of the sixteen patients, eleven were evaluated for one migraine attack, one for two attacks, two for four attacks, one for six attacks, and one for fourteen attacks. A total of forty-one […] treatments were evaluated. Patients received a single dose of one of the following treatment options:
The majority of the patients remained in the clinic for observation for 2 hours after dosing. They completed headache diary assessments immediately before and after dosing at time points: 7, 15, and 30 minutes; and 1, 1.5, 2, 3, 6, 12, 24, and 48 hours. Headache pain was assessed on a 4-point scale (0=none; 1=mild; 2=moderate; 3=severe). The assessment of photophobia, phonophobia, nausea, and neck/shoulder pain was assessed as present or absent. The assessment of emotional pain was recorded on a 4-point scale (0=none, 1=mild, 2=moderate, 3=severe). The assessment of difficulty sleeping or falling asleep (insomnia) was assessed on a 4-point scale (0=none, 1=mild, 2=moderate, 3=severe) at baseline, for the night before treatment and for the following nights at 24, and 48 hours. Patients recorded side effects severity at each time point. Patients recorded the time of the first rescue medication dose and all additional headache medications used within 48 hours. Patients were required to stay awake to record their assessments in the first 2 hours, sleeping was permitted thereafter. While asleep, assessments were completed according to patients' best estimation. For data analysis, it was assumed that a migraine attack is a unique patient. Patients were asked to specify (yes or no answer) to whether they experienced emotional pain symptoms such as: hurt feelings, sadness, fear, or anger. Patients who replied positively to having emotional pain were asked to specify the cause into one of the following options: relationship, work/school, money/debt, health, or loss/grief.

[1] = 12 h, NTX/APAP 2.25 mg/325 mg, NTX 2.25 mg
[2] = 12 h, NTX/APAP 3.25 mg/325 mg, NTX 3.25 mg
[3] = 12 h, NTX/APAP 5 mg/325 mg, NTX 5 mg
[4] = 12 h, NTX/APAP […]325 mg, NTX 1.5 mg
[5] = 12 h, naltrexone/acetaminophen 2.25 mg/325 mg (N=21), naltrexone 2.25 mg (N=9)
[6] = 24 h, NTX/APAP 2.25 mg/325 mg, NTX 2.25 mg
[7] = 24 h, NTX/APAP 3.25 mg/325 mg, NTX 3.25 mg
[8] = 24 h, NTX/APAP 5 mg/325 mg, NTX 5 mg
[9] = 24 h, NTX/APAP […]325 mg, NTX 1.5 mg
[10] = 24 h, naltrexone/acetaminophen 2.25 mg/325 mg (N=21), naltrexone 2.25 mg (N=9)
[11] = 48 h, NTX/APAP 2.25 mg/325 mg, NTX 2.25 mg
[12] = 48 h, NTX/APAP 3.25 mg/325 mg, NTX 3.25 mg
[13] = 48 h, NTX/APAP 5 mg/325 mg, NTX 5 mg
[14] = 48 h, NTX/APAP […]325 mg, NTX 1.5 mg
[15] = 48 h, naltrexone/acetaminophen 2.25 mg/325 mg (N=21), naltrexone 2.25 mg (N=9)

SMILES: O=C1CC[C@@]2(O)[C@H]3Cc4ccc(O)c5c4[C@@]2(CCN3CC2CC2)[C@H]1O5 [naltrexone]
- Nausea-free [1]: 9 (100) n (%)
- Neck/shoulder pain-free [1]: 9 (100) n (%)
- Phonophobia-free [1]: 9 (100) n (%)
- Photophobia-free [1]: 8 (88) n (%)
- Additional meds taken [2]: 0
- Headache pain-free [2]: 3 (100) n (%)
- Headache pain-relief [2]: 3 (100) n (%)
- Most bothersome symptom-free [2]: 3 (100) n (%)
- Nausea-free [2]: 3 (100) n (%)
- Neck/shoulder pain-free [2]: 3 (100) n (%)
- Phonophobia-free [2]: 3 (100) n (%)
- Photophobia-free [2]: 3 (100) n (%)
- Additional meds taken [3]: 0
- Headache pain-free [3]: 1 (100) n (%)
- Headache pain-relief [3]: 1 (100) n (%)
- Most bothersome symptom-free [3]: 1 (100) n (%)
- Nausea-free [3]: 1 (100) n (%)
- Neck/shoulder pain-free [3]: 1 (100) n (%)
- Phonophobia-free [3]: 1 (100) n (%)
- Photophobia-free [3]: 1 (100) n (%)
- Additional meds taken [4]: 0
- Headache pain-free [4]: 3 (100) n (%)
- Headache pain-relief [4]: 3 (100) n (%)
- Most bothersome symptom-free [4]: 3 (100) n (%)
- Nausea-free [4]: 3 (100) n (%)
- Neck/shoulder pain-free [4]: 3 (100) n (%)
- Phonophobia-free [4]: 3 (100) n (%)
- Photophobia-free [4]: 3 (100) n (%)
- Additional meds taken (12 h, combined doses): 0
- Headache pain-free (12 h, combined doses): 14 (88) n (%)
- Headache pain-relief (12 h, combined doses): 16 (100) n (%)
- Most bothersome symptom-free (12 h, combined doses): 16 (100) n (%)
- Nausea-free (12 h, combined doses): 16 (100) n (%)
- Neck/shoulder pain-free (12 h, combined doses): 16 (100) n (%)
- Phonophobia-free (12 h, combined doses): 16 (100) n (%)
- Photophobia-free (12 h, combined doses): 15 (94) n (%)
- Headache pain-free (12 h, naltrexone 1.5 mg (N=3)): 100%
- Headache pain-free [5]: 77% and 100%
- Headache pain-relief [5]: 100%
- Most bothersome symptom-free [5]: 100%
- Headache pain-free (12 h, naltrexone/acetaminophen 3.25 mg/325 mg (N=3), naltrexone 3.25 mg (N=3)): 100%
- Additional meds taken [6]: 0
- Headache pain-free [6]: 8 (88) n (%)
- Headache pain-relief [6]: 9 (100) n (%)
- Most bothersome symptom-free [6]: 9 (100) n (%)
- Nausea-free [6]: 9 (100) n (%)
- Neck/shoulder pain-free [6]: 9 (100) n (%)
- Phonophobia-free [6]: 9 (100) n (%)
- Photophobia-free [6]: 9 (100) n (%)
- Additional meds taken [7]: 0
- Headache pain-free [7]: 3 (100) n (%)
- Headache pain-relief [7]: 3 (100) n (%)
- Most bothersome symptom-free [7]: 3 (100) n (%)
- Nausea-free [7]: 3 (100) n (%)
- Neck/shoulder pain-free [7]: 3 (100) n (%)
- Phonophobia-free [7]: 3 (100) n (%)
- Photophobia-free [7]: 3 (100) n (%)
- Additional meds taken [8]: 0
- Headache pain-free [8]: 1 (100) n (%)
- Headache pain-relief [8]: 1 (100) n (%)
- Most bothersome symptom-free [8]: 1 (100) n (%)
- Nausea-free [8]: 1 (100) n (%)
- Neck/shoulder pain-free [8]: 1 (100) n (%)
- Phonophobia-free [8]: 1 (100) n (%)
- Photophobia-free [8]: 1 (100) n (%)
- Additional meds taken [9]: 0
- Headache pain-free [9]: 3 (100) n (%)
- Headache pain-relief [9]: 3 (100) n (%)
- Most bothersome symptom-free [9]: 3 (100) n (%)
- Nausea-free [9]: 3 (100) n (%)
- Neck/shoulder pain-free [9]: 3 (100) n (%)
- Phonophobia-free [9]: 3 (100) n (%)
- Photophobia-free [9]: 3 (100) n (%)
- Additional meds taken (24 h, combined doses): 0
- Headache pain-free (24 h, combined doses): 15 (94) n (%)
- Headache pain-relief (24 h, combined doses): 16 (100) n (%)
- Most bothersome symptom-free (24 h, combined doses): 16 (100) n (%)
- Nausea-free (24 h, combined doses): 16 (100) n (%)
- Neck/shoulder pain-free (24 h, combined doses): 16 (100) n (%)
- Phonophobia-free (24 h, combined doses): 16 (100) n (%)
- Photophobia-free (24 h, combined doses): 16 (100) n (%)
- Headache pain-free (24 h, naltrexone 1.5 mg (N=3)): 100%
- Headache pain-free [10]: 88% and 100%
- Headache pain-relief [10]: 100%
- Most bothersome symptom-free [10]: 100%
- Headache pain-free (24 h, naltrexone/acetaminophen 3.25 mg/325 mg (N=3), naltrexone 3.25 mg (N=3)): 100%
- Additional meds taken [11]: 0 (0)
- Headache pain-free [11]: 9 (100) n (%)
- Headache pain-relief [11]: 9 (100) n (%)
- Most bothersome symptom-free [11]: 9 (100) n (%)
- Nausea-free [11]: 9 (100) n (%)
- Neck/shoulder pain-free [11]: 9 (100) n (%)
- Phonophobia-free [11]: 9 (100) n (%)
- Photophobia-free [11]: 9 (100) n (%)
- Additional meds taken [12]: 0
- Headache pain-free [12]: 3 (100) n (%)
- Headache pain-relief [12]: 3 (100) n (%)
- Most bothersome symptom-free [12]: 3 (100) n (%)
- Nausea-free [12]: 3 (100) n (%)
- Neck/shoulder pain-free [12]: 3 (100) n (%)
- Phonophobia-free [12]: 3 (100) n (%)
- Photophobia-free [12]: 3 (100) n (%)
- Additional meds taken [13]: 1
- Headache pain-free [13]: 1 (100) n (%)
- Headache pain-relief [13]: 1 (100) n (%)
- Most bothersome symptom-free [13]: 1 (100) n (%)
- Nausea-free [13]: 1 (100) n (%)
- Neck/shoulder pain-free [13]: 1 (100) n (%)
- Phonophobia-free [13]: 1 (100) n (%)
- Photophobia-free [13]: 1 (100) n (%)
- Additional meds taken [14]: 0
- Headache pain-free [14]: 2 (66) n (%)
- Headache pain-relief [14]: 2 (66) n (%)
- Most bothersome symptom-free [14]: 2 (66) n (%)
- Nausea-free [14]: 2 (66) n (%)
- Neck/shoulder pain-free [14]: 3 (100) n (%)
- Phonophobia-free [14]: 3 (100) n (%)
- Photophobia-free [14]: 2 (66) n (%)
- Additional meds taken (48 h, combined doses): 1
- Headache pain-free (48 h, combined doses): 15 (94) n (%)
- Headache pain-relief (48 h, combined doses): 15 (94) n (%)
- Most bothersome symptom-free (48 h, combined doses): 15 (94) n (%)
- Nausea-free (48 h, combined doses): 15 (94) n (%)
- Neck/shoulder pain-free (48 h, combined doses): 16 (100) n (%)
- Phonophobia-free (48 h, combined doses): 16 (100) n (%)
- Photophobia-free (48 h, combined doses): 15 (94) n (%)
- Headache pain-free (48 h, naltrexone 1.5 mg (N=3)): 100%
- Headache pain-free [15]: 100%
- Headache pain-relief [15]: 100%
- Most bothersome symptom-free [15]: 100%
- Headache pain-free (48 h, naltrexone/acetaminophen 3.25 mg/325 mg (N=3), naltrexone 3.25 mg (N=3)): 100%
- Headache pain-free (from 90 minutes to 48 hours, naltrexone alone, all dosages (1.5, 2.25, 3.25, 5 mg)): 100%
